Blank lines part the entries; values can stand above or below the molecule they belong to.
Assays:
MDTS6 mRNA = test: Induction of MDTS6 mRNA expression in rabbit knee joint cartilage primary culture cells (RT-PCR); format: cell-based; details: 10 ng/ml of IL-1β or 10 μM of all-trans retinoic acid; 2 and 6 hours
Experimental: After 3 days of culturing of the rabbit knee joint cartilage primary culture cells of 6 well plate described in Example 11-1 by changing the medium to ascorbic acid medium, 10 ng/ml of IL-1β or 10 μM of all-trans retinoic acid was added thereto, and total RNA samples 2 and 6 hours thereafter were prepared using ISOGEN (mfd. by Nippon Gene) in accordance with the attached instructions. Each of the samples was treated with DNase I (mfd. by Nippon Gene), subjected to phenol/chloroform treatment and then recovered by ethanol precipitation, and the thus purified total RNA was dissolved in DEPC-treated sterile water. Using random hexamers as primers, 1 μg of this total RNA was subjected to reverse transcription reaction and RNase H treatment using Thermoscript™ RT-PCR System (mfd. by GIBCO-BRL, catalog number 11146-016) in accordance with the attached instructions, and the product was diluted 10 times with sterile water and used as a cDNA sample. Using 5 μl of each of the thus obtained cDNA samples as the template and the oligoDNA sequences represented by SEQ ID NO:18 and SEQ ID NO:19 as primers, PCR was carried out under a condition of 94° C. for 2 minutes, 45 repetitions of a cycle of 94° C. for 30 seconds, 65° C. for 30 seconds and 72° C. for 30 seconds, and subsequent 72° C. for 10 minutes. […]

[1] = test system: rabbit knee joint cartilage primary culture cells; test: Proteoglycan degradation/release in rabbit knee joint cartilage primary culture cells (35S label); format: cell-based; details: for IC50: Oryctolagus cuniculus, read-out: proteoglycan degradation inhibition action (IC50)
Experimental: After killing a rabbit (Japanese white species, male, 1.0 to 1.5 kg) under excess anesthesia, a knee joint was excised and the cartilage layer on the joint surface was removed and finely cut using a surgical knife. The cut pieces were treated with trypsin-EDTA (0.25%-1 mM; mfd. by GIBCO-BRL) at 37° C. for 1 hour and then centrifuged at 1,500 rpm for 5 minutes, and the resulting precipitate was washed with DMEM. This was treated with collagenase A (0.15%; Boehringer-Mannheim)/DMEM at 37° C. for 3 to 4 hours, and then a nylon mesh filter (100 μm, mfd. by Falcon)-passed fraction was centrifuged at 1,500 rpm for 5 minutes to effect precipitation of cartilage cells. The cells were thoroughly washed with DMEM/10% FBS medium, suspended in DMEM/10% FBS medium to a density of 2×10^5 cells/ml and then inoculated in 200 μl/well portions into an I type collagen-coated 96 well plate (mfd. by Asahi Technoglass). Three days thereafter, the medium was changed to 200 μof DMEM/10% FBS medium containing 50 μg/ml of ascorbic acid (ascorbic acid medium hereinafter), and the culturing was continued for 3 days. When an I type collagen-coated 6 well plate (Asahi Technoglass) was used, the cell suspension was inoculated in 6 ml/well portions and cultured by carrying out the same medium exchange. These cells were used in the following test.
The rabbit knee joint cartilage primary culture cells of 96 well plate described in Example 11-1 were cultured for 2 days using 200 μl of the ascorbic acid medium supplemented with 10 μCi/ml in final concentration of Na2^35SO4 and labeled therewith, washed 3 times with 200 μl of the ascorbic acid medium and then cultured for 1 day using 200 μl of the ascorbic acid medium. After stimulation with IL-1β or all-trans retinoic acid and subsequent 0, 24, and 48 hours of culturing, the culture supernatants were recovered in 20 μl portions, and the radioactivity was measured using Top Count (mfd. by Packard).
Each of the compounds A, B, C and D selected by the screening system of Example 10-2 was added to the proteoglycan degradation system of rabbit knee joint cartilage primary culture cells just before the stimulation with 10 μM of all-trans retinoic acid, and their proteoglycan degradation inhibitory activities were examined.

[2] = test system: recombinant aggrecan G1G2; test: Recombinant aggrecan G1G2 degradation by expressed MDTS6 proteins (western blotting); format: biochemical, human; details: method of Example 7-3, anti-aggrecanase neoepitope antibody
Experimental: In Example 6, the medium 12 to 16 hours after introduction of the expression plasmid was replaced by a serum-free medium, and the culturing was continued for 32 to 36 hours to recover the culture supernatant. This culture supernatant was mixed with the recombinant aggrecan prepared in the foregoing, and the mixture was allowed to undergo the reaction at 37° C. overnight, subjected to SDS-PAGE, transferred on a PVDF membrane and blocked by the method described in Example 6 and then allowed to react with an anti-Hisx6 polyclonal antibody (sc-803; mfd. by Santa Cruz Biotechnology) and a horseradish peroxidase-labeled goat anti-rabbit IgG polyclonal antibody (mfd. by BML) in that order. After the reaction, the recombinant aggrecan was detected using an ECL western blotting system (mfd. by Amersham Pharmacia). As a result, degraded fragment of the recombinant aggrecan, which was not found in the control in which only the […] was introduced, was detected (FIG. 2).
Aggrecanase is a metalloprotease which selectively cleaves aggrecan at the site between Glu^373 -Ala^374. An antibody capable of recognizing a C-side neoepitope generated by this cleavage was prepared in accordance with a usual method by repeating immunization of mouse with a conjugate of the synthetic peptide represented by SEQ ID NO:32 and KLH, 5 times. A PVDF membrane after transfer and blocking carried out in the same manner as in Example 7-2 was allowed to react with this antibody, allowed to react with a peroxidase-labeled goat anti-mouse IgG polyclonal antibody (mfd. by Tago) and then detected using an ECL western blotting detection system (mfd. by Amersham Pharmacia). As a result, the degraded product of recombinant aggrecan generated by MDTS6 reacted with the anti-aggrecanase neoepitope antibody, and molecular weight of the detected band is consistent with the molecular weight of the degraded product detected in Example 7-2 (FIG. 3). The same result was obtained by the BC-3 antibody which recognizes aggrecanase neoepitope (Hughes C. E. et al., Biochemical J., 305, 799-804, 1995). […]

[3] = compound added just before stimulation with 10 μM of all-trans retinoic acid

Molecule: CC1=C(/C=C/C(C)=C/C=C/C(C)=C/C(=O)O)C(C)(C)CCC1 [all-trans retinoic acid, reference compound]
expression of the MDTS6 mRNA (MDTS6 mRNA): induced
release of proteoglycan (increase in radioactivity of culture supernatant) ([1]; stimulation with 0.01 to 10 ng/ml IL-1β or 0.1 to 10 μM all-trans retinoic acid, 0, 24, 48 hours of culturing): concentration-dependent and strong radioactivity, namely release of proteoglycan, was observed

IC50 [1, 3]: 6.3 µM
Molecule: CNC(=O)[C@H](Cc1ccc(OC)cc1)NC(=O)C(CC(C)C)C(CSc1ccccc1)C(=O)NO (stereo partly drawn) [compound C, N^α-[2-(1-hydroxycarbamoyl-2-phenylsulfanylethyl)-4-methylpentanoyl]-N,O-dimethyltyrosineamide]

IC50 [1, 3]: 4.1 µM
Molecule: CNC(=O)[C@H](Cc1ccc(OC)cc1)NC(=O)C(CC(C)C)C(CSC)C(=O)NO (stereo partly drawn) [compound D, N^α-[2-(1-hydroxycarbamoyl-2-methylsulfanylethyl)-4-methylpentanoyl]-N,O-dimethyltyrosineamide]

Molecule: CNC(=O)C(Cc1ccc(OC)cc1)NC(=O)C(CC(C)C)C(CS)C(=O)NO (stereo not drawn) [compound A, N-^α-[2-(1-hydroxycarbamoyl-2-sulfanylethyl)-4-methylpentanoyl]-N,O-dimethyltyrosineamide]
inhibition of proteoglycan degradation (in words, FIG. 8) [1, 3]: inhibition of proteoglycan degradation in a concentration-dependent manner

B1: MDTS6Dis: protein of amino acids 1st to 518th position of SEQ ID NO:1 with the polypeptide of SEQ ID NO:33 added to the C-terminus (protein)
chain: FVSIPRYVETLVVADESMVKFHGADLEHYLLTLLATAARLYRHPSILNPINIVVVKVLLLRDRDSGPKVTGNAALTLRNFCAWQKKLNKVSDKHPEYWDTAILFTRQDLCGATTCDTLGMADVGTMCDPKRSCSVIEDDGLPSAFTTAHELGHVFNMPHDNVKVCEEVFGKLRANHMMSPTLIQIDRANPWSACSAAIITDFLDSGHGDCLLDQPSKPISLPEDLPGASYTLSQQCELAFGVGSKPCPYMQYCTKLWCTGKAKGQMVCQTRHFPWADGTSCGEGKLCLKGACVERHNLNKHRVDGSGSAAADYKDDDDK
aggrecanase activity in culture supernatant [2]: not detected

B2: MDTS6Pro: protein of amino acids 1st to 447th position of SEQ ID NO:1 with the polypeptide of SEQ ID NO:33 added to the C-terminus (protein)
chain: FVSIPRYVETLVVADESMVKFHGADLEHYLLTLLATAARLYRHPSILNPINIVVVKVLLLRDRDSGPKVTGNAALTLRNFCAWQKKLNKVSDKHPEYWDTAILFTRQDLCGATTCDTLGMADVGTMCDPKRSCSVIEDDGLPSAFTTAHELGHVFNMPHDNVKVCEEVFGKLRANHMMSPTLIQIDRANPWSACSAAIITDFLDSGHGDCLLDQPSKPISLPEDLPGASYTLSQQGSAAADYKDDDDK
aggrecanase activity in culture supernatant [2]: not detected

B3: MDTS6Cys: protein of amino acids 1st to 687th position of SEQ ID NO:1 with the polypeptide of SEQ ID NO:33 added to the C-terminus (protein)
chain: FVSIPRYVETLVVADESMVKFHGADLEHYLLTLLATAARLYRHPSILNPINIVVVKVLLLRDRDSGPKVTGNAALTLRNFCAWQKKLNKVSDKHPEYWDTAILFTRQDLCGATTCDTLGMADVGTMCDPKRSCSVIEDDGLPSAFTTAHELGHVFNMPHDNVKVCEEVFGKLRANHMMSPTLIQIDRANPWSACSAAIITDFLDSGHGDCLLDQPSKPISLPEDLPGASYTLSQQCELAFGVGSKPCPYMQYCTKLWCTGKAKGQMVCQTRHFPWADGTSCGEGKLCLKGACVERHNLNKHRVDGSWAKWDPYGPCSRTCGGGVQLARRQCTNPTPANGGKYCEGVRVKYRSCNLEPCPSSASGKSFREEQCEAFNGYNHSTNRLTLAVAWVPKYSGVSPRDKCKLICRANGTGYFYVLAPKVVDGTLCSPDSTSVCVQGKCIKAGCDGNLGSKKRFDKCGVCGGDNKSCKKVTGGSAAADYKDDDDK
aggrecanase activity in culture supernatant [2]: detected

— US6716613B1, “Metalloprotease having aggrecanase activity” (Yamanouchi Pharmaceutical Co., Ltd., priority 1999, dated 2004)
